Measured values published in PMC8213057, “Targeting ALK2: An Open Science Approach to Developing Therapeutics for the Treatment of Diffuse Intrinsic Pontine Glioma” (Journal of Medicinal Chemistry, 2020).

Columns and labels:
CHK2 = CHK2 (Homo sapiens, UniProt O96017); details: 1 μM; Run 1, Run 2
JNK1 = JNK1 (Homo sapiens, UniProt P45983); details: 1 μM; Run 1, Run 2
CK1epsilon = CK1epsilon (Homo sapiens, UniProt P49674); details: 1 μM; Run 1, Run 2
PLK3 = PLK3 (Homo sapiens, UniProt Q9H4B4); details: 1 μM; Run 1, Run 2
RAF1 = RAF1 (Homo sapiens, UniProt P04049); experiment: biochemical; details: read-out: % enzyme activity, 1 μM; Run 1, Run 2
Sequence of RAF1 (P04049 whole entry): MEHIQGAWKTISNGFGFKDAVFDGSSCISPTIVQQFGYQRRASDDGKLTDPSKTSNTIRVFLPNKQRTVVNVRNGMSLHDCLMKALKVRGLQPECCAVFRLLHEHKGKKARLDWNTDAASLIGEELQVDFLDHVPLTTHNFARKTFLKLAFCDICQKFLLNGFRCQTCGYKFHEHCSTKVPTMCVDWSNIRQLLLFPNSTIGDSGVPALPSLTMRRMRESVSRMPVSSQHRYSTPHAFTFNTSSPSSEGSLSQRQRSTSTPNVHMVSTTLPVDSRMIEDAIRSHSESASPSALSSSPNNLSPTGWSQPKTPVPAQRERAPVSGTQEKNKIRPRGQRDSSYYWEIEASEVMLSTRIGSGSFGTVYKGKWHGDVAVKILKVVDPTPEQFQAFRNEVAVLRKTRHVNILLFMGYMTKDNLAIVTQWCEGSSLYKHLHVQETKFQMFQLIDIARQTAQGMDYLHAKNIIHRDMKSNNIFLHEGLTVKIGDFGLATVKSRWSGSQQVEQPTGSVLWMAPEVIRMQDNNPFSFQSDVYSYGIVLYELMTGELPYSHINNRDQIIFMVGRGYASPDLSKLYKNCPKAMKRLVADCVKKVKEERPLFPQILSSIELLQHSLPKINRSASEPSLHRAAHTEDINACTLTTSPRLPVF

DYRK3 = target: T1, DYRK3 (Homo sapiens, UniProt O43781); details: 1 μM; Run 1, Run 2
T1 sequence (O43781 1-588): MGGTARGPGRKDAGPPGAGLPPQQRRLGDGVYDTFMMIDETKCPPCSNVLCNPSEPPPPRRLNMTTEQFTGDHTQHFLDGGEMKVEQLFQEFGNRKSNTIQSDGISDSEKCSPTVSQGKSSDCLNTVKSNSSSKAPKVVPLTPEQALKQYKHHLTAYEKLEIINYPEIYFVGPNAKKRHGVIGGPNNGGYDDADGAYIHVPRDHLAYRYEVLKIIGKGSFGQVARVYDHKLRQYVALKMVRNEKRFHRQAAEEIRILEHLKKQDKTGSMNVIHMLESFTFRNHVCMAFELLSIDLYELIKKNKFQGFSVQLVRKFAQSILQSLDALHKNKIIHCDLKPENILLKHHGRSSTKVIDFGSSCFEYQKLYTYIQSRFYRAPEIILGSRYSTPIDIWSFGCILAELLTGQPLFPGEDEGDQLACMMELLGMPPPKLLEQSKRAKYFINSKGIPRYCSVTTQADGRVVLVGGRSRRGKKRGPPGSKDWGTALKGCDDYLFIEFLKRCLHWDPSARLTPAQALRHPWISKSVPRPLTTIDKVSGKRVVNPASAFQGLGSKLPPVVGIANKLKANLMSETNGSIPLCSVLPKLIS

MLCK2/MYLK2 = MLCK2/MYLK2 (Homo sapiens, UniProt Q9H1R3); experiment: biochemical; details: read-out: % enzyme activity, 1 μM; Run 1, Run 2
PRKX = target: T2, PRKX (Homo sapiens, UniProt P51817); details: 1 μM; Run 1, Run 2
T2 sequence (P51817 1-358): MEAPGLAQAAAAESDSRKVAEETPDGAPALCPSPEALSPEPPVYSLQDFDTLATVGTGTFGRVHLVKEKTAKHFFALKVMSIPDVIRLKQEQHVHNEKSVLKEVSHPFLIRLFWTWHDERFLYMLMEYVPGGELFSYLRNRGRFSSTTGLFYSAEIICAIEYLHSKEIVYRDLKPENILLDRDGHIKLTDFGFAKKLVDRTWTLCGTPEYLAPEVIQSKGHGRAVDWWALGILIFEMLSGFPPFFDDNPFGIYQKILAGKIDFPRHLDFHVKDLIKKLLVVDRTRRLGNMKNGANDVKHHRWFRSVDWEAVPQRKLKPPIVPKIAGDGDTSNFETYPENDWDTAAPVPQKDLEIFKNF

MST3/STK24 = MST3/STK24 (Homo sapiens, UniProt Q9Y6E0); experiment: biochemical; details: read-out: % enzyme activity, 1 μM; Run 1, Run 2
Sequence of MST3/STK24 (Q9Y6E0 whole entry): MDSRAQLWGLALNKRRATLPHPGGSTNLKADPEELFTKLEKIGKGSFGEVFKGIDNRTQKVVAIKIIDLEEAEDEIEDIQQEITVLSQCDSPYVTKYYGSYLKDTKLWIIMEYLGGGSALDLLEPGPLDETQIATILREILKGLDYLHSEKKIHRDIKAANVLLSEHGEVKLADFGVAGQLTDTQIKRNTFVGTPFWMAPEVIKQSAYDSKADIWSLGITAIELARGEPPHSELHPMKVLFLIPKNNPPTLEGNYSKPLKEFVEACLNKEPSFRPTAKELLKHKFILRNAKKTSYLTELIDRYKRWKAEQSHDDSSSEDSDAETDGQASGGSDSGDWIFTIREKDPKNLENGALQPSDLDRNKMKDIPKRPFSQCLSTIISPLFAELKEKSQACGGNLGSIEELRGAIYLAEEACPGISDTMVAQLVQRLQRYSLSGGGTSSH

MNK2 = MNK2 (Homo sapiens, UniProt Q9HBH9); experiment: biochemical; details: read-out: % enzyme activity, 1 μM; Run 1, Run 2
PKA = PKA (Homo sapiens, UniProt P17612); details: 1 μM; Run 1, Run 2
TIE2/TEK = TIE2/TEK (Homo sapiens, UniProt Q02763); details: 1 μM; Run 1, Run 2
CDK17/cyclin Y (PCTK2) = CDK17/cyclin Y (PCTK2) (Homo sapiens, UniProt Q00537); experiment: biochemical; details: read-out: % enzyme activity, 1 μM; Run 1, Run 2
CAMK2d = CAMK2d (Homo sapiens, UniProt Q13557); details: 1 μM; Run 1, Run 2
PBK/TOPK = target: T3, PBK/TOPK (Homo sapiens, UniProt Q96KB5); details: 1 μM; Run 1, Run 2
T3 sequence (Q96KB5 1-322): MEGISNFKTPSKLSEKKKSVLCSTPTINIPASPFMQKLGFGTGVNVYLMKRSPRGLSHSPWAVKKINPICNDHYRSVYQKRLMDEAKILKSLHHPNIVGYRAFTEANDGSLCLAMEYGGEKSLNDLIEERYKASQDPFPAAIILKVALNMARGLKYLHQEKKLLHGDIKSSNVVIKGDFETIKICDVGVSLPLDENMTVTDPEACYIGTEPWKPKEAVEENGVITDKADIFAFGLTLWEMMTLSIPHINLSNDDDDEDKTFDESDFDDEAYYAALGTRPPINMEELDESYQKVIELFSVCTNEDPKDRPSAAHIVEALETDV

MINK/MINK1 = target: T4, MINK/MINK1 (Homo sapiens, UniProt Q8N4C8); experiment: 375-member kinase panel; assay type: biochemical; details: Run 1, Run 2; for % enzyme activity: 1 μM; for remaining activity at 1 µM: read-out: % enzyme activity, 1 μM
T4 construct: purchased Reaction Biology Corporation
T4 sequence (Q8N4C8 whole entry): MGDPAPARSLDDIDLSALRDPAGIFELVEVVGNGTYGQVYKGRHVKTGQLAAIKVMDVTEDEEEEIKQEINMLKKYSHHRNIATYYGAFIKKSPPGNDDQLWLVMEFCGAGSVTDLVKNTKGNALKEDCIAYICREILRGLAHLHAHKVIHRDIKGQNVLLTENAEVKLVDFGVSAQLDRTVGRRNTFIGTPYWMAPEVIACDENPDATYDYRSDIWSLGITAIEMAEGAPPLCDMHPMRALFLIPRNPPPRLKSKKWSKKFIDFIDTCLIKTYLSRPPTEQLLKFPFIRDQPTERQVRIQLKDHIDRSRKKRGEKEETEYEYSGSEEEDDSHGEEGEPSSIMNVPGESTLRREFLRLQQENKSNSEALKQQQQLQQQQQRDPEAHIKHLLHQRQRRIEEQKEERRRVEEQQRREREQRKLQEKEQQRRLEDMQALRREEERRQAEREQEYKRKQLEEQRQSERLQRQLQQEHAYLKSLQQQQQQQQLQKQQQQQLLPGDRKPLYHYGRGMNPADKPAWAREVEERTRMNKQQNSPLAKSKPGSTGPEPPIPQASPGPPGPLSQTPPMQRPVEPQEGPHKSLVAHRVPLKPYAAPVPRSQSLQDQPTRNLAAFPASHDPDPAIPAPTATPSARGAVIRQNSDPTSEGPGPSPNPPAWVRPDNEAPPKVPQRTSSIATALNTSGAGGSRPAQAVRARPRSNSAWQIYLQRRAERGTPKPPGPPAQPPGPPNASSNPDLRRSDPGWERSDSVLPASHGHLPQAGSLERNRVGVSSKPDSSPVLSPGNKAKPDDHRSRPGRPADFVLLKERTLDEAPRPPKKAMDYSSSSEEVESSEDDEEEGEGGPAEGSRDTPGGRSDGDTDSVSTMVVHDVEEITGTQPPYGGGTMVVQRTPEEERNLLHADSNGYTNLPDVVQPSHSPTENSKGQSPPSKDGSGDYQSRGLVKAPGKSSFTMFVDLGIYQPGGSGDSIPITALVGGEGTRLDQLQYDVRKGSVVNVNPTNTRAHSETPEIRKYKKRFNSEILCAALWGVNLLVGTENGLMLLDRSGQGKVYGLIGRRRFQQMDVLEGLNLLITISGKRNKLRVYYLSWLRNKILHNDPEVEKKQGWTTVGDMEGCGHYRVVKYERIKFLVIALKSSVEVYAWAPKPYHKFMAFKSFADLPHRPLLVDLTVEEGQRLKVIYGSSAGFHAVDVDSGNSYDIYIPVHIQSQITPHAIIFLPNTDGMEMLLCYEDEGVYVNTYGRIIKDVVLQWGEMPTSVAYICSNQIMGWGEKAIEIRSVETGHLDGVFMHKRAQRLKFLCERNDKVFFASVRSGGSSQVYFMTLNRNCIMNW

HIPK1 = HIPK1 (Homo sapiens, UniProt Q86Z02); experiment: biochemical; details: read-out: % enzyme activity, 1 μM; Run 1, Run 2
Sequence of HIPK1 (Q86Z02 whole entry): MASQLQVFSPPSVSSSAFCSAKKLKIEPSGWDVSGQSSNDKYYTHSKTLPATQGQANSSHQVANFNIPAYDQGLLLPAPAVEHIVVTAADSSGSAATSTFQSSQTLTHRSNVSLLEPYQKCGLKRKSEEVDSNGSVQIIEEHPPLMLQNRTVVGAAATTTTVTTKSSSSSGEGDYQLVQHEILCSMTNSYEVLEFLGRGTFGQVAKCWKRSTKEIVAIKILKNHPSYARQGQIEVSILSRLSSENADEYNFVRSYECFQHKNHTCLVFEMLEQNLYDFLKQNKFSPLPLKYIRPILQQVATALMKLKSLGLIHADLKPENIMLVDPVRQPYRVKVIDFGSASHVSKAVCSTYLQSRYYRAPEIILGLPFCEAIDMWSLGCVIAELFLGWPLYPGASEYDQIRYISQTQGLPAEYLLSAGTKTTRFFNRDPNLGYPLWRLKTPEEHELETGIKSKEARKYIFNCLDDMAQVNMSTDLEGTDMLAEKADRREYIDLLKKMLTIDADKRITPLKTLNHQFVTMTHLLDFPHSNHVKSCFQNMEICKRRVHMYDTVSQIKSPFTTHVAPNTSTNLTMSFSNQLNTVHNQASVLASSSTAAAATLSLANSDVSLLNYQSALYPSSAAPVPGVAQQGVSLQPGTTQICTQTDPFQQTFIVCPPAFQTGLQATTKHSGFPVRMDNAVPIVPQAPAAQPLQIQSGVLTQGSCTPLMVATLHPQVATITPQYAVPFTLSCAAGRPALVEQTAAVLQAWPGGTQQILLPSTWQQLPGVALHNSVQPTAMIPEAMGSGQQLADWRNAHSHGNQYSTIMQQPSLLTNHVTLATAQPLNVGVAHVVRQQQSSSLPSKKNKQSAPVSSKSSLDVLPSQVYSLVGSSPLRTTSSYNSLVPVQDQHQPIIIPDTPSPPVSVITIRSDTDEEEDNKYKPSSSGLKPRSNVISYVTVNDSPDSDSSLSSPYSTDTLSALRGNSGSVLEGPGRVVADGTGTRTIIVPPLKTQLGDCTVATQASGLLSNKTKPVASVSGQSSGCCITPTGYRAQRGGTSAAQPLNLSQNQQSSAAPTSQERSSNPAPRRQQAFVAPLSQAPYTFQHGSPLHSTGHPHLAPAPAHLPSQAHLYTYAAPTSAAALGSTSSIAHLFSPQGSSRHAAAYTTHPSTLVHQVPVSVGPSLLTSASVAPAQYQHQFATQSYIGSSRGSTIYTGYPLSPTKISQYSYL

CDK1/cyclin A = CDK1/cyclin A (Homo sapiens, UniProt P06493); details: 1 μM; Run 1, Run 2
IRAK4 = target: T5, IRAK4 (Homo sapiens, UniProt Q9NWZ3); details: 1 μM; Run 1, Run 2
T5 sequence (Q9NWZ3 1-460): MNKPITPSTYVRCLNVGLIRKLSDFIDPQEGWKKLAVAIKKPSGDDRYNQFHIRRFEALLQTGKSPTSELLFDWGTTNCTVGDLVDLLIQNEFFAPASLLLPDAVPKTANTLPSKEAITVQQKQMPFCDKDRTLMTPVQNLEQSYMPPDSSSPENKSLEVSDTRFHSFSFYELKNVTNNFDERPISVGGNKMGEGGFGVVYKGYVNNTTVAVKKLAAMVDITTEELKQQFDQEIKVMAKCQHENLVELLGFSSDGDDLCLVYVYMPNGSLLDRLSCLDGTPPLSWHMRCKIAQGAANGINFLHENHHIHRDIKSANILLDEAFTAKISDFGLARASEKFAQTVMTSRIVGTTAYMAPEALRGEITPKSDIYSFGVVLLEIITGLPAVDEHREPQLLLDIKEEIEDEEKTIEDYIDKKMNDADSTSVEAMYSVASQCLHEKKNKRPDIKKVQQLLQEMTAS

Sequence of JNK1 (P45983 whole entry): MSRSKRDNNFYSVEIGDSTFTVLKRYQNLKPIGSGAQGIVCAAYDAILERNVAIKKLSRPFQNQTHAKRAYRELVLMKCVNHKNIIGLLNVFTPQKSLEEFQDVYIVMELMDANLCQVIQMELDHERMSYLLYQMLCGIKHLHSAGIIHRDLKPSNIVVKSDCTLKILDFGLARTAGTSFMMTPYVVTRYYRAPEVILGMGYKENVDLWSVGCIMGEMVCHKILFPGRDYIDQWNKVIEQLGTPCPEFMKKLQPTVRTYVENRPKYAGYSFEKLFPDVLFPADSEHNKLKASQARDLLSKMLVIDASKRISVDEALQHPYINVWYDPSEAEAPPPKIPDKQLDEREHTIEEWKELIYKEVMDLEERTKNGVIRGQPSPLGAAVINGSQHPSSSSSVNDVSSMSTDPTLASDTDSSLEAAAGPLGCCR
Sequence of CK1epsilon (P49674 whole entry): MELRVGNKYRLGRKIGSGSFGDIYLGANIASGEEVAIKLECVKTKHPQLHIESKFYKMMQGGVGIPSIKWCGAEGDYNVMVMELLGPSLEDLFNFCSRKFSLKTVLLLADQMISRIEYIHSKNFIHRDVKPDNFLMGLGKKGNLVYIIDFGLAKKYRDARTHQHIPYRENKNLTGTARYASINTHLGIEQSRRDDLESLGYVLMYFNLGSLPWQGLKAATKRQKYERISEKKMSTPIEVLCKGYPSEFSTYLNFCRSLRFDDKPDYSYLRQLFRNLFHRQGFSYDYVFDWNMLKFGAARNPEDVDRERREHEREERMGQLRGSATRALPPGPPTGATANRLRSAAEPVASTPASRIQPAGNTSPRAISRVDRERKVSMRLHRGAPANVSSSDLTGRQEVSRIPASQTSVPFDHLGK
Sequence of CHK2 (O96017 whole entry): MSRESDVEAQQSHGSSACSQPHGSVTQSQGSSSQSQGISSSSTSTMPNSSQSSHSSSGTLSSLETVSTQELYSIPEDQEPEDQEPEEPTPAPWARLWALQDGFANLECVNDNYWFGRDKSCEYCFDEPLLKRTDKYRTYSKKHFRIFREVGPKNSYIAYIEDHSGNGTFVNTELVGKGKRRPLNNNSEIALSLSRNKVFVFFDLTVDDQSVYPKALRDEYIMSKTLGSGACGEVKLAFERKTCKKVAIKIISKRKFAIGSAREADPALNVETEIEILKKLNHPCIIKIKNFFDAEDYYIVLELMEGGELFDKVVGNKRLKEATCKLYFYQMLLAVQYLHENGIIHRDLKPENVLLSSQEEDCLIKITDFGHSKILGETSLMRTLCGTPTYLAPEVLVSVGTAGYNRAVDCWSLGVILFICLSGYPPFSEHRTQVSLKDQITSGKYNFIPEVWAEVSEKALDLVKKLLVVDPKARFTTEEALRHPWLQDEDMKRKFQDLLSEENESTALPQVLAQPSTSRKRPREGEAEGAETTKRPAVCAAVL

Row | SMILES | % enzyme activity (CHK2) [%] | % enzyme activity (JNK1) [%] | % enzyme activity (CK1epsilon) [%] | % enzyme activity (PLK3) [%] | remaining activity at 1 µM (RAF1) [%] | % enzyme activity (DYRK3) [%] | remaining activity at 1 µM (MLCK2/MYLK2) [%] | % enzyme activity (PRKX) [%] | remaining activity at 1 µM (MST3/STK24) [%] | remaining activity at 1 µM (MNK2) [%] | % enzyme activity (PKA) [%] | % enzyme activity (TIE2/TEK) [%] | remaining activity at 1 µM (CDK17/cyclin Y (PCTK2)) [%] | % enzyme activity (CAMK2d) [%] | % enzyme activity (PBK/TOPK) [%] | % enzyme activity (MINK/MINK1) [%] | remaining activity at 1 µM (MINK/MINK1) [%] | remaining activity at 1 µM (HIPK1) [%] | % enzyme activity (CDK1/cyclin A) [%] | % enzyme activity (IRAK4) [%]
1 | COc1cc(-c2cncc(-c3ccc(N4CCN(C)CC4)cc3)c2C)cc(F)c1C(N)=O [Compound 26a, 2-Fluoro-6-methoxy-4-(4-methyl-5-(4-(4-methylpiperazin-1-yl)phenyl)pyridin-3-yl)benzamide] | 99.41 | 88.65 | 93.07 | 93.70 | 78.7 | 88.30 | 66.8 | 99.24 | 90.2 | 48.2 | 96.94 | 92.85 | 96.1 | 94.73 | 89.81 | 22.65 | 24.1 | 106 | 92.50 | 82.71
2 | COc1cc(-c2cncc(-c3ccc(N4C[C@@H](C)N(C)[C@@H](C)C4)cc3)c2C)cc(F)c1C(N)=O [Compound 26c, 2-Fluoro-6-methoxy-4-(4-methyl-5-(4-((3R,5S)-3,4,5-trimethylpiperazin-1-yl)phenyl)pyridin-3-yl)benzamide] | 101.19 | 85.74 | 90.08 | 94.47 | 85.5 | 96.01 | 84.8 | 90.55 | 96.3 | 70.8 | 95.62 | 92.15 | 101 | 95.15 | 102.56 | 29.65 | 30.2 | 99.9 | 89.52 | 88.61
